Activity calls are given as the source filed them. Cut-off read from the data, not from the text of the source, for most assays here: actives have a measured Kd and inactives only a lower limit.
Key:
[1] = molecular target: T1, ATP-dependent RNA helicase DDX42 (Homo sapiens, UniProt Q86XP3)
T1 sequence (Q86XP3 whole entry): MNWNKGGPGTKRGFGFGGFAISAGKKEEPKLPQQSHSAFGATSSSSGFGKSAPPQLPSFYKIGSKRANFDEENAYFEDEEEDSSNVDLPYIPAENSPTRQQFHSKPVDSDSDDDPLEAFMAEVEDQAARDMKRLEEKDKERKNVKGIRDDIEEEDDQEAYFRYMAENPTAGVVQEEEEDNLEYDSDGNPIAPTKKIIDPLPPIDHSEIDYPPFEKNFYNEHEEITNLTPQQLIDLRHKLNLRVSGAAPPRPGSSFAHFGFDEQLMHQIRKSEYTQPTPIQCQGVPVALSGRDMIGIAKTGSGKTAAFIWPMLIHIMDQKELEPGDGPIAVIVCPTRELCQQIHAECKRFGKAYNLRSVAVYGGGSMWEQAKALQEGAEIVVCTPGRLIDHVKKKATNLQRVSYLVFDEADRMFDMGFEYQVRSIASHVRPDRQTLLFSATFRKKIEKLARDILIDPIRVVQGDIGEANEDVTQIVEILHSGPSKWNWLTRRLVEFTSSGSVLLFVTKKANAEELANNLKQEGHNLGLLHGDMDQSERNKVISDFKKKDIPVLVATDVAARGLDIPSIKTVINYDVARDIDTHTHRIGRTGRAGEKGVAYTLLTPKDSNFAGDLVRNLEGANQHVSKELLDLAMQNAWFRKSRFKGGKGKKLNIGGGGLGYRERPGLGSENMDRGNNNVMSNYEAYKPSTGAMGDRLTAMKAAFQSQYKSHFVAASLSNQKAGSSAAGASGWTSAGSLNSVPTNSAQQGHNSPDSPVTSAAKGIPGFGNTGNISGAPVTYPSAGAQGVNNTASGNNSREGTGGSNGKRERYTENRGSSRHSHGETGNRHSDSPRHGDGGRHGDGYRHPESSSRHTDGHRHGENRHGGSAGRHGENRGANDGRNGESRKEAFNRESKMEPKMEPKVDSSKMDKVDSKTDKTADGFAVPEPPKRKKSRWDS

[2] = molecular target: Rho-associated protein kinase 2 (Homo sapiens, UniProt O75116)
Ephrin type-A receptor 2 = Ephrin type-A receptor 2 (Homo sapiens, UniProt P29317)
Chain of Ephrin type-A receptor 2 (P29317 whole entry): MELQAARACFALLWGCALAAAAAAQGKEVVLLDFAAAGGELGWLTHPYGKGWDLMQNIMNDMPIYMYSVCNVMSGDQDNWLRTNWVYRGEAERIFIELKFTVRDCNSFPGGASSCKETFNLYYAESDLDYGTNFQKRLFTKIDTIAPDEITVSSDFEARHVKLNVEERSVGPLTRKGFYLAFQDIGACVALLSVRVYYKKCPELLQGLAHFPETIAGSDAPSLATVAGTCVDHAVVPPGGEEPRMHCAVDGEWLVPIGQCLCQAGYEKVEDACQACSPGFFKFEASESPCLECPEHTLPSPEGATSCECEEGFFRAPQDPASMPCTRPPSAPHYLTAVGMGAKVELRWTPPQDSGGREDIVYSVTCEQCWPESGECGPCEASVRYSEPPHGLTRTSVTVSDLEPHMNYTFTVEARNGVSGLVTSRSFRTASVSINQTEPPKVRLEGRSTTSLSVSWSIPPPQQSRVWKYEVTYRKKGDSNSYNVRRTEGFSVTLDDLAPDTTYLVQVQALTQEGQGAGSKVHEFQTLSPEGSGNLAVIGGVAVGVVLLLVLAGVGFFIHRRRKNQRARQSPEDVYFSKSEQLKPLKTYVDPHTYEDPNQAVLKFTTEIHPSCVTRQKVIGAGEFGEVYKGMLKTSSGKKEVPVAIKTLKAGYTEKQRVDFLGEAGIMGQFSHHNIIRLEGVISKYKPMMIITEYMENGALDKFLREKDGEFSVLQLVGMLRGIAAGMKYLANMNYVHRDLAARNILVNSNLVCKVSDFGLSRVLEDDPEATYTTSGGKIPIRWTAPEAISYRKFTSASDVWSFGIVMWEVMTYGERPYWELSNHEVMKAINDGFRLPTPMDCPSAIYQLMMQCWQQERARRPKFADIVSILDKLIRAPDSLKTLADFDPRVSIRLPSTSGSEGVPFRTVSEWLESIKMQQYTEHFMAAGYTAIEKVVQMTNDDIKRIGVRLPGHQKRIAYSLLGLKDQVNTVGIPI

[3] = molecular target: Serine/threonine-protein kinase MRCK alpha (Homo sapiens, UniProt Q5VT25)
Chain of Serine/threonine-protein kinase MRCK alpha (Q5VT25 whole entry): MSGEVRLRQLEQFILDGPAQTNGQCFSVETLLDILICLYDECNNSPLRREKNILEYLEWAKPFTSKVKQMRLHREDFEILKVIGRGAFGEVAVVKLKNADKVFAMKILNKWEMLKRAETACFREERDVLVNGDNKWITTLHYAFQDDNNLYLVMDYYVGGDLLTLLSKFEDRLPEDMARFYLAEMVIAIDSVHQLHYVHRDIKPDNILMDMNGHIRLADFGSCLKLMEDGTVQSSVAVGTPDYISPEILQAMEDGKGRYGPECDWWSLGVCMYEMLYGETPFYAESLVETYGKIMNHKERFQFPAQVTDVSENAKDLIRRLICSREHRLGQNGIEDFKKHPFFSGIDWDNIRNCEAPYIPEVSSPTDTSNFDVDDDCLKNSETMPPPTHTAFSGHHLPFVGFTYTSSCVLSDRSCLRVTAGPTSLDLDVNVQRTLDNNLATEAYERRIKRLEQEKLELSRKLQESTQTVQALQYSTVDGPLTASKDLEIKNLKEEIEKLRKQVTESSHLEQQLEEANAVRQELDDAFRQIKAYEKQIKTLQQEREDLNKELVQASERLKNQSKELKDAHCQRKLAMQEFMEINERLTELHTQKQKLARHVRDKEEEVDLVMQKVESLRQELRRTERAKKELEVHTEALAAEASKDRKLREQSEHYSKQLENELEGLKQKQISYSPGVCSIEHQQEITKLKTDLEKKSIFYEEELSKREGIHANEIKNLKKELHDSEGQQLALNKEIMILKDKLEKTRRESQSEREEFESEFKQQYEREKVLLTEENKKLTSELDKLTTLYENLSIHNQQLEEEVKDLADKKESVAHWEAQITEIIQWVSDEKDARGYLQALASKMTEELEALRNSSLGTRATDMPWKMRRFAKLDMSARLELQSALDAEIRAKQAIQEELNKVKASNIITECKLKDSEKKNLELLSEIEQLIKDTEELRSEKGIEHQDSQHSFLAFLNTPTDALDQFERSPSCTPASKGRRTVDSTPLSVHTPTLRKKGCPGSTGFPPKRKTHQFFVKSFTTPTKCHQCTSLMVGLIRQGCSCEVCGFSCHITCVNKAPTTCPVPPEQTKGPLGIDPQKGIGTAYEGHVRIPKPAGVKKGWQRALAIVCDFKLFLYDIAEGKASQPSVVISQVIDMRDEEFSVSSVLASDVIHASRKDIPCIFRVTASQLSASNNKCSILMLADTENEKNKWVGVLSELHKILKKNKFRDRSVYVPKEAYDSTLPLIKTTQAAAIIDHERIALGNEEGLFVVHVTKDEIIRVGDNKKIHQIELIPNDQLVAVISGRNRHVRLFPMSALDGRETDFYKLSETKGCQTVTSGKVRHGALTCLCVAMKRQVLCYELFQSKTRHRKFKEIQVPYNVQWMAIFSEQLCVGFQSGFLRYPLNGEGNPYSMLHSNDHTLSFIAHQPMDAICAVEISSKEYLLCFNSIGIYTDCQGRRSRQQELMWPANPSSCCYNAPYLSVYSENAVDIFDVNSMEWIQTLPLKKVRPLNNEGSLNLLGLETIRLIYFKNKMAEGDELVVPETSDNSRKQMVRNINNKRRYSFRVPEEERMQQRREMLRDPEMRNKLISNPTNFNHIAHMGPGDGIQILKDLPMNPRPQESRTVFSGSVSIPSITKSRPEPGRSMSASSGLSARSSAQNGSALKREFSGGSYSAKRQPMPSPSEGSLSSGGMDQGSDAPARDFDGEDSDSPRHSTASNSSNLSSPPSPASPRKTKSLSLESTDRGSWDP

[4] = molecular target: Proto-oncogene tyrosine-protein kinase Src (Homo sapiens, UniProt P12931)
Activin receptor type-1B = molecular target: T2, Activin receptor type-1B (Homo sapiens, UniProt P36896)
T2 sequence (P36896 whole entry): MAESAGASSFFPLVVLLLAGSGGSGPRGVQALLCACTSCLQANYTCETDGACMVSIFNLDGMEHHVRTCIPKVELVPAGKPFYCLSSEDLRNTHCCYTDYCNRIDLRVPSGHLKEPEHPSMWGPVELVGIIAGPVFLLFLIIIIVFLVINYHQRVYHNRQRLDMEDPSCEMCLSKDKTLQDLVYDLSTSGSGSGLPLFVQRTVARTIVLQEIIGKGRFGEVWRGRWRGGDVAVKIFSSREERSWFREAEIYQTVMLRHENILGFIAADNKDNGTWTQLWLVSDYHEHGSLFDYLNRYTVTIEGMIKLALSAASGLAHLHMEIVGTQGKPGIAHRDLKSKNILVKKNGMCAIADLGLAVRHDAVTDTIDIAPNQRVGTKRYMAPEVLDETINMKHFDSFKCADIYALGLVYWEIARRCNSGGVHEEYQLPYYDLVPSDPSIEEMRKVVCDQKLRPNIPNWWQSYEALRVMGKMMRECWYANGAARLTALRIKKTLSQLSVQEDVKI

Insulin receptor = Insulin receptor (Homo sapiens, UniProt P06213)
Chain of Insulin receptor (P06213 28-758 limits assumed): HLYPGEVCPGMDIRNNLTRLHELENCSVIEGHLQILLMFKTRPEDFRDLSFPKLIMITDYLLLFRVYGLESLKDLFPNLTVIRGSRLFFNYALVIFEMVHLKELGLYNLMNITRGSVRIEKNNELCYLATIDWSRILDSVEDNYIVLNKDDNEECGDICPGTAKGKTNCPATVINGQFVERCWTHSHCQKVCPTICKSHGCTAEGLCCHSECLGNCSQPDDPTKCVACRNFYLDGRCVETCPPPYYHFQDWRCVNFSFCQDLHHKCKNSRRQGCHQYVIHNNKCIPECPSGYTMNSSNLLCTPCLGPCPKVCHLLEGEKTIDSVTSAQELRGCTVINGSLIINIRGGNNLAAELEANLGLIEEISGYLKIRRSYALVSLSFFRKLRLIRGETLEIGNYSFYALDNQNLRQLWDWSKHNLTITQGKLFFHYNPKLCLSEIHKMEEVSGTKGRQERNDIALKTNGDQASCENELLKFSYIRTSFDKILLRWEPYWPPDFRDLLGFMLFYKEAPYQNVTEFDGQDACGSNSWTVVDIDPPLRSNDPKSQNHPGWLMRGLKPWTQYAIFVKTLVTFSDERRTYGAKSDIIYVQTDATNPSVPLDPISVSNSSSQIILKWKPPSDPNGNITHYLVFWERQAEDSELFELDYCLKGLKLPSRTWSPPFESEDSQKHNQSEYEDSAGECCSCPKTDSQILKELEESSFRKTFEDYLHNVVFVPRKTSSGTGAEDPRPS
Chain of Insulin receptor (P06213 763-1382 limits assumed): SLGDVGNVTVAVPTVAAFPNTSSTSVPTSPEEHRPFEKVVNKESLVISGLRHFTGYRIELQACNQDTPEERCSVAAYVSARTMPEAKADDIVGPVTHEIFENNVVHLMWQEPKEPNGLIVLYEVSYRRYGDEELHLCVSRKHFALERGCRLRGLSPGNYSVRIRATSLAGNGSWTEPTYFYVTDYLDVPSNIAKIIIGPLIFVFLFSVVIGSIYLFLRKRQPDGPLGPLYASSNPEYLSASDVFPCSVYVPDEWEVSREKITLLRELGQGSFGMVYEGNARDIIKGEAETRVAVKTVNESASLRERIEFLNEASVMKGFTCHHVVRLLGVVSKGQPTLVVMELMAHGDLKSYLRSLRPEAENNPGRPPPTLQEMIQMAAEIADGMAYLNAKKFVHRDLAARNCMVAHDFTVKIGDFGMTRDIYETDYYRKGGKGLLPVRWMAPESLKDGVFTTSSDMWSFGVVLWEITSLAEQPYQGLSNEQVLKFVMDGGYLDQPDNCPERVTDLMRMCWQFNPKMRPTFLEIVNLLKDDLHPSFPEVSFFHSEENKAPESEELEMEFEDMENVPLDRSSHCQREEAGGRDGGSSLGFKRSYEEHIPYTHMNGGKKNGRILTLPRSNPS

[5] = molecular target: Eukaryotic translation initiation factor 2-alpha kinase 1 (Homo sapiens, UniProt Q9BQI3)
Chain of Eukaryotic translation initiation factor 2-alpha kinase 1 (Q9BQI3 whole entry): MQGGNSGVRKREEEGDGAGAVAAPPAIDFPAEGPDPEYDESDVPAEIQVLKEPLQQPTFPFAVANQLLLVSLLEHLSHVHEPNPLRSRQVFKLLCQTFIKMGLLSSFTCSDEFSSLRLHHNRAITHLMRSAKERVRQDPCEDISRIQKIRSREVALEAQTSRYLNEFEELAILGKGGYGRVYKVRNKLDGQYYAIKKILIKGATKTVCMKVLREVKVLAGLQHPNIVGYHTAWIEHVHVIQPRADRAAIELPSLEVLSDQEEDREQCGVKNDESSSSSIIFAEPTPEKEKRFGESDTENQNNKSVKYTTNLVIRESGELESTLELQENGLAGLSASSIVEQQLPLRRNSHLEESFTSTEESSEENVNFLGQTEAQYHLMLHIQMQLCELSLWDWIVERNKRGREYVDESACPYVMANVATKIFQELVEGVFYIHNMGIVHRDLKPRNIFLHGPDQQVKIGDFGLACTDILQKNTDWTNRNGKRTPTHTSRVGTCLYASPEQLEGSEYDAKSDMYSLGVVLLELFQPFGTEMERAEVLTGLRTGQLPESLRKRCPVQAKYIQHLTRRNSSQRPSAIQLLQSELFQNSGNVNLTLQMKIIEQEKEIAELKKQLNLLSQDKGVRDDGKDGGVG

[6] = molecular target: Serine/threonine-protein kinase pim-1 (Homo sapiens, UniProt P11309)
Chain of Serine/threonine-protein kinase pim-1 (P11309 whole entry, the tested form may be a part): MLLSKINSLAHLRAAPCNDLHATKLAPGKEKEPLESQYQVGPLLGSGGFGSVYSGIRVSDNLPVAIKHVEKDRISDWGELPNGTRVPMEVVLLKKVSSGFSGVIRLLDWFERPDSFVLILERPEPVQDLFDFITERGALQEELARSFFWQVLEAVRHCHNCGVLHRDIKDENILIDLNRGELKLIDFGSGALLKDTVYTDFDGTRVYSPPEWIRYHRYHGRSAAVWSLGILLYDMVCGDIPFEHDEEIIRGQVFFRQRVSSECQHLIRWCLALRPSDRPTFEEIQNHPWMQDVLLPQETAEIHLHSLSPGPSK

[7] = molecular target: T3, Discoidin domain-containing receptor 2 (Homo sapiens, UniProt Q16832)
T3 sequence (Q16832 whole entry): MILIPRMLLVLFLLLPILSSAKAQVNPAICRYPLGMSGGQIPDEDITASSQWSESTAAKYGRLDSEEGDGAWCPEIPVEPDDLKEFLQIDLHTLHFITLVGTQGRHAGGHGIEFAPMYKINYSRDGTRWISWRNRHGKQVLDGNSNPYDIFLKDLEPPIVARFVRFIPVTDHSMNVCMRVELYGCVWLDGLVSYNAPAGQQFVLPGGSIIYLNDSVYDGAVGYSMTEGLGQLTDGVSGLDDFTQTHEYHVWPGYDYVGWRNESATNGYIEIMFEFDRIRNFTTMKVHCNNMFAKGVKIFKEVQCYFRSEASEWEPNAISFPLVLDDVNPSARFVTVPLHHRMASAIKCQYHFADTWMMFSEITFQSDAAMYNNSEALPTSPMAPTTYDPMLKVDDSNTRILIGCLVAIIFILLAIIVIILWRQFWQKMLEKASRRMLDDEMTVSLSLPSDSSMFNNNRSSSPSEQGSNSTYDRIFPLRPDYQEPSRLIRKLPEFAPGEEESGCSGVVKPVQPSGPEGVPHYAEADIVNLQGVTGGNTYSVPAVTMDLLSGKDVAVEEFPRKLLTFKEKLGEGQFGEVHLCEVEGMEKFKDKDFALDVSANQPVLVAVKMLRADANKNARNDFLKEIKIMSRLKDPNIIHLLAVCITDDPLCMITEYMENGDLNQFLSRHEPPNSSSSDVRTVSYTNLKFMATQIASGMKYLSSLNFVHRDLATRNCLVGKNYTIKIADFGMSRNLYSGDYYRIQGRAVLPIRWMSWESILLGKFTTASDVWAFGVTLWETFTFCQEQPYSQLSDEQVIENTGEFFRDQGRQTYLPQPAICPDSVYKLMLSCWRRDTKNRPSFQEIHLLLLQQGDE
Note: in the data inactive means no Kd found up to 30 µM.

Compound | Kd [1] | Kd [2] | Kd (Ephrin type-A receptor 2) | Kd [3] | Kd [4] | Kd (Activin receptor type-1B) | Kd (Insulin receptor) | Kd [5] | Kd [6] | Kd [7]
COc1cc2nccc(Oc3ccc(NC(=O)C4(C(=O)Nc5ccc(F)cc5)CC4)cc3)c2cc1OC [CABOZANTINIB] | > 30 µM (inactive) | > 30 µM (inactive) | 0.746 µM (active) | > 30 µM (inactive) | > 30 µM (inactive) | > 30 µM (inactive) | > 30 µM (inactive) | > 30 µM (inactive) | > 30 µM (inactive) | 0.501 µM (active)
COc1cc2ncnc(Nc3ccc(O)cc3)c2cc1OC [WHI-P131] | > 30 µM (inactive) | > 30 µM (inactive) | > 30 µM (inactive) | > 30 µM (inactive) | > 30 µM (inactive) | > 30 µM (inactive) | > 30 µM (inactive) | > 30 µM (inactive) | > 30 µM (inactive) | > 30 µM (inactive)
Cc1ccc(C(=O)Nc2ccc(Oc3cc4cnn(C)c4cc3-c3cn[nH]c3)c(F)c2)c(=O)n1-c1ccc(F)cc1 [MERESTINIB] | > 30 µM (inactive) | > 30 µM (inactive) | > 30 µM (inactive) | > 30 µM (inactive) | > 30 µM (inactive) | > 30 µM (inactive) | > 30 µM (inactive) | > 30 µM (inactive) | > 30 µM (inactive) | 0.908 µM (active)
Cn1cc(-c2[nH]c3cc(NC(=O)[C@H](N)C4CCCCC4)cc4c3c2C=NNC4=O)cn1 | > 30 µM (inactive) | > 30 µM (inactive) | > 30 µM (inactive) | > 30 µM (inactive) | 1.4 µM (active) | > 30 µM (inactive) | > 30 µM (inactive) | > 30 µM (inactive) | > 30 µM (inactive) | > 30 µM (inactive)
C=CC(=O)Nc1cc(Nc2nccc(-c3cn(C)c4ccccc34)n2)c(OC)cc1N(C)CCN(C)C [OSIMERTINIB] | > 30 µM (inactive) | > 30 µM (inactive) | > 30 µM (inactive) | > 30 µM (inactive) | > 30 µM (inactive) | > 30 µM (inactive) | > 30 µM (inactive) | > 30 µM (inactive) | > 30 µM (inactive) | > 30 µM (inactive)
CNC(=O)c1ccc(Nc2ncc(C(F)(F)F)c(NCc3nccnc3N(C)S(C)(=O)=O)n2)cc1 [DEFACTINIB] | > 30 µM (inactive) | > 30 µM (inactive) | > 30 µM (inactive) | > 30 µM (inactive) | > 30 µM (inactive) | > 30 µM (inactive) | > 30 µM (inactive) | > 30 µM (inactive) | > 30 µM (inactive) | > 30 µM (inactive)
NC(=O)c1ccc(N(C(N)=O)c2c(F)cccc2F)nc1-c1ccc(F)cc1F [VX-702] | > 30 µM (inactive) | > 30 µM (inactive) | > 30 µM (inactive) | > 30 µM (inactive) | > 30 µM (inactive) | > 30 µM (inactive) | > 30 µM (inactive) | > 30 µM (inactive) | > 30 µM (inactive) | > 30 µM (inactive)

Second part, the compound after the results:

Kd [1] | Kd [2] | Kd (Ephrin type-A receptor 2) | Kd [3] | Kd [4] | Kd (Activin receptor type-1B) | Kd (Insulin receptor) | Kd [5] | Kd [6] | Kd [7] | Compound
> 30 µM (inactive) | > 30 µM (inactive) | > 30 µM (inactive) | > 30 µM (inactive) | > 30 µM (inactive) | > 30 µM (inactive) | > 30 µM (inactive) | > 30 µM (inactive) | > 30 µM (inactive) | > 30 µM (inactive) | Cn1c(=O)c(F)c(Nc2ccc(I)cc2F)c2c(=O)n(C[C@@H](O)CO)cnc21 [TAK-733]
> 30 µM (inactive) | > 30 µM (inactive) | > 30 µM (inactive) | > 30 µM (inactive) | 1.15 µM (active) | > 30 µM (inactive) | > 30 µM (inactive) | > 30 µM (inactive) | > 30 µM (inactive) | > 30 µM (inactive) | COc1cccc(Nc2ncnn3ccc(CN4CC[C@@H](N)[C@H](O)C4)c23)c1 [BMS-690514]
> 30 µM (inactive) | > 30 µM (inactive) | > 30 µM (inactive) | > 30 µM (inactive) | > 30 µM (inactive) | 0.549 µM (active) | > 30 µM (inactive) | > 30 µM (inactive) | > 30 µM (inactive) | > 30 µM (inactive) | COc1cccc2cc(-c3nc([C@H]4CC[C@H](C(=O)O)CC4)n4ncnc(N)c34)[nH]c12 [OSI-027]
